The results in this text go back to paper PMC4831468, “White collar 1‐induced photolyase expression contributes to UV‐tolerance of Ustilago maydis” (MicrobiologyOpen, 2015).

Holding throughout (type): binding
The target in one assay is T1, Phr2 (Mycosarcoma maydis, UniProt A0A0D1E060).
T1 construct: gene UMAG_02144; pET51b, 10xHis- and Strep-tagged, E. coli Rosetta(DE3)
T1 sequence (A0A0D1E060 1-684): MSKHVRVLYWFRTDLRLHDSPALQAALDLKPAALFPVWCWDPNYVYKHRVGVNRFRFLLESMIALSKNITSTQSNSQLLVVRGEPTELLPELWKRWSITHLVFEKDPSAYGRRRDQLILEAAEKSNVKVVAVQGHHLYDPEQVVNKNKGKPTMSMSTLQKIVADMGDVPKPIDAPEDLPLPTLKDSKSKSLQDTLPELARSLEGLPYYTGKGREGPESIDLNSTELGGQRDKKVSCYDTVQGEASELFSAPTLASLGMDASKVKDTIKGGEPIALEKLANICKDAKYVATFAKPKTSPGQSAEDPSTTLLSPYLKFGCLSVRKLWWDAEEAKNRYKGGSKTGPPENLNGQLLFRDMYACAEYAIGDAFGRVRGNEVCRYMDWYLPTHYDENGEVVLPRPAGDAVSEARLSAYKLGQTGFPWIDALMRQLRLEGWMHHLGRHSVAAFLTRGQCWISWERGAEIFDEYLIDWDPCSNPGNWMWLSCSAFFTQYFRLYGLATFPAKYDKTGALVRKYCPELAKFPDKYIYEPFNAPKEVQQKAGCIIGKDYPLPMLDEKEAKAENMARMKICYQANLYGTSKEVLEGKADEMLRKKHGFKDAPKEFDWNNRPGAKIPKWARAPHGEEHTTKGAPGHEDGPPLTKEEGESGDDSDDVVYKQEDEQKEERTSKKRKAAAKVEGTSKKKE
The assay is described as follows: UV-Vis absorption spectroscopy of copurified chromophore; blue-light photoreduction. Conditions: copurified from E. coli; photoreduction with 10 mM DTT, pH 7.5, 15 C.

The target of assay [1] is T2, Phr1 (Mycosarcoma maydis, UniProt A0A0D1DNG6).
T2 construct: gene UMAG_06079
T2 sequence (A0A0D1DNG6 1-655): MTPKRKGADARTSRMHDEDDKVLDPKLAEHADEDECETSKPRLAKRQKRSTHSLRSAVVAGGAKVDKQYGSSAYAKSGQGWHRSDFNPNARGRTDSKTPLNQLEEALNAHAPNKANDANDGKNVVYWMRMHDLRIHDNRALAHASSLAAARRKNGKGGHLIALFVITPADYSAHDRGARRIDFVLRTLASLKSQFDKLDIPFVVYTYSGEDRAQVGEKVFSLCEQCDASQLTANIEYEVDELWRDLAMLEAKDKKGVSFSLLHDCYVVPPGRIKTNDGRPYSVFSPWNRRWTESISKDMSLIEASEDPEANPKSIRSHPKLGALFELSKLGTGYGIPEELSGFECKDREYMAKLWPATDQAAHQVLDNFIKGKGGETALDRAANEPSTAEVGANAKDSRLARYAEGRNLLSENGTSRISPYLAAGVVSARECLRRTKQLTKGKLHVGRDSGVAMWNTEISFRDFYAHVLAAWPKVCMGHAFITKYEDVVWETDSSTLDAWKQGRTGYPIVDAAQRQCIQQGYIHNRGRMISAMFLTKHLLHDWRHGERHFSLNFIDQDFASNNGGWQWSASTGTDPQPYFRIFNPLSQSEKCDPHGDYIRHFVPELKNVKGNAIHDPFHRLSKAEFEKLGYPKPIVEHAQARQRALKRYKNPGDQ
The assay is described as above. Conditions: copurified from E. coli; photoreduction with 10 mM DTT, pH 7.5, 15 C.

Assay [2] has as its target T3, Cry2 (Mycosarcoma maydis, UniProt A0A0D1DUB1).
T3 construct: gene UMAG_05917; pET51b, 10xHis- and Strep-tagged, E. coli Arctic Express
T3 sequence (A0A0D1DUB1 1-623): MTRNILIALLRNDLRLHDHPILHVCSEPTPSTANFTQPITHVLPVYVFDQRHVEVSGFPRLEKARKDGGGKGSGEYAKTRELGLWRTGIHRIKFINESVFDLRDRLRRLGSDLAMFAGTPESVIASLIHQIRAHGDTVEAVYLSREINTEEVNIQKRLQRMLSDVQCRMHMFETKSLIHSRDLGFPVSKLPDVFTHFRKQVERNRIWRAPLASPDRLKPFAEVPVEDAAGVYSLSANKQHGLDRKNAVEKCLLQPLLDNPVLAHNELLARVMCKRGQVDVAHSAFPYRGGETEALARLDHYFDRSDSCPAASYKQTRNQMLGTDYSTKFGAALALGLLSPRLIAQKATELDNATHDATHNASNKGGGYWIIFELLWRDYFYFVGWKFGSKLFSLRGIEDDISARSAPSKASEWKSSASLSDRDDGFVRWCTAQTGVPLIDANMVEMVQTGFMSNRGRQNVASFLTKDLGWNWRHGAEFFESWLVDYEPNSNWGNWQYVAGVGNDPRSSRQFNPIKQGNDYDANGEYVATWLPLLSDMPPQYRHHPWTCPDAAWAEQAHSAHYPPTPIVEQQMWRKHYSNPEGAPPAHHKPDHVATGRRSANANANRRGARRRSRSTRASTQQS
The assay is described as above. Conditions: copurified from E. coli; photoreduction with 10 mM DTT, pH 7.5, 15 C.

In a further assay the target is T4, Cry1 (Mycosarcoma maydis, UniProt A0A0D1CDQ8).
T4 construct: gene UMAG_01131; pET51b, 10xHis- and Strep-tagged, synthetic cDNA, E. coli BL21(DE3)
T4 sequence (A0A0D1CDQ8 1-881): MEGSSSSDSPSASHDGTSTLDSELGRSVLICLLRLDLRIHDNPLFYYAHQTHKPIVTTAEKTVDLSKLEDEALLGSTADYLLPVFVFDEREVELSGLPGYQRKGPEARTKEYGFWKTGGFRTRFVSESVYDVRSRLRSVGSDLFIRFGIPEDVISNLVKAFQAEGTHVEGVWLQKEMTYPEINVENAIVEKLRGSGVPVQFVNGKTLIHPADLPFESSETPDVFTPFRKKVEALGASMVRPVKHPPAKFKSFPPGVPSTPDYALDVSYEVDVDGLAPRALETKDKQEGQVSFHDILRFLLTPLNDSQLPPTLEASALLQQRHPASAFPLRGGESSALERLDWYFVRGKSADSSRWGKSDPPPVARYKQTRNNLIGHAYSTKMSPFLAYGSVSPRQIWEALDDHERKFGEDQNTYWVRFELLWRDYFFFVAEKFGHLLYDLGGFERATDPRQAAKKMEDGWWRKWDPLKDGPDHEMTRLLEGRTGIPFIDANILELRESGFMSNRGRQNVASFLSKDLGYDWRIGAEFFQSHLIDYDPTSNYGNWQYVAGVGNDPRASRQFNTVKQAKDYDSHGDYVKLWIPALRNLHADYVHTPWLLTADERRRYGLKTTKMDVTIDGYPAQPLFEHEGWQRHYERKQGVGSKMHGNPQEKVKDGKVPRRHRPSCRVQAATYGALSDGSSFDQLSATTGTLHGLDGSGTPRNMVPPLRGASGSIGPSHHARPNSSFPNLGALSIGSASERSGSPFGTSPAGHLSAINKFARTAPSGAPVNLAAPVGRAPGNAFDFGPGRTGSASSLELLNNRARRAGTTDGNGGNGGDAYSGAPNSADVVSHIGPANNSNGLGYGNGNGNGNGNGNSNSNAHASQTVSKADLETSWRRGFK
The description is as above. Conditions: copurified from E. coli; photoreduction with 10 mM DTT, pH 7.5, 15 C.

The target in assay [3] is T3, Cry2. The assay is described as follows: UV-Vis absorption spectroscopy of copurified chromophore (about […] nm peak). Conditions: copurified from E. coli; antenna chromophore, second site beside FAD; assigned from spectrum only.
The target of assay [4] is T2, Phr1. The description is as above. Conditions: copurified from E. coli; antenna chromophore, second site beside FAD; assigned from spectrum only.

For the compound `Cc1cc2nc3c(=O)[nH]c(=O)nc-3n(C[C@H](O)[C@H](O)[C@H](O)COP(=O)(O)OP(=O)(O)OC[C@H]3O[C@@H](n4cnc5c(N)ncnc54)[C@H](O)[C@@H]3O)c2cc1C` [FAD], the “UV-Vis absorption spectroscopy of copurified chromophore; blue-light photoreduct” value at Phr2, at Phr1 [1], on Cry2 [2] and on Cry1 was “these data proved that all CPF members of U. maydis bind FAD” throughout.
Regarding `Nc1nc2c(c(=O)[nH]1)[N+]1=CN(c3ccc(C(=O)N[C@@H](CCC(=O)O)C(=O)O)cc3)C[C@H]1CN2` [MTHF], the “UV-Vis absorption spectroscopy of copurified chromophore (about 380 nm peak)” value at Cry2 [3] is “Methenyltetrahydrofolate (MTHF) is the second cofactor of Cry2 and Phr1”; on Phr1 [4], “Methenyltetrahydrofolate (MTHF) is the second cofactor of Cry2 and Phr1”.
